Columns and labels:
Fibroblasts (BJ) = test: Safety, LDH test in fibroblasts; assay type: cell-based; conditions: 48 hours, positive control Triton X-100
Protocol: (§1) In order to test the safety of the compounds, both normal human cells were used: keratinocytes (HaCaT), fibroblasts (BJ), primary melanocytes that occur in the skin, as well as human cancer cells: the hepatocarcinoma line HepG2 and the neuroblastoma line SH-SY5Y, which are considered a model for the assessment of hepatocytotoxicity and neurocytotoxicity. The concentrations of the tested compounds in the range of 250-100 µM were used in the studies. The cell lines used in the research were purchased from the American Type Culture Collection (ATCC) and were cultured in media recommended by the manufacturer with the addition of FBS and antibiotics in an incubator ensuring appropriate culture conditions, i.e. humidity, temperature and CO2 concentration. Cells were seeded into multiwell plates and incubated with the test compounds for 48 hours. After this time, MTT and LDH tests were performed to assess cell viability. The MTT test is based on the ability to transform the substrate: [3-(4,5-dimethyl-2-thiazolyl)-2,5-diphenyl-2H-tetrazolium bromide into a colored product only by living cells. The absorbance at 570 nm, which corresponds to the absorption maximum for the product, is directly proportional to cell viability. The LDH test is based on testing the activity of the enzyme lactate dehydrogenase in the culture medium, which is released from cells as a result of damage to the cell membrane, e.g. as a result of cell death. Triton X-100 was used as a positive control in the test. The determination is colorimetric, the substrate is transformed by the released enzyme into a colored product, an increase in absorbance indicates a larger amount of the released enzyme, and thus confirms greater damage to cell membranes. Tables 7 and 8 present the results obtained, which correspond to the viability of cells incubated with the compounds in relation to the viability of cells constituting a control sample, i.e. incubated with the solvent (DMSO) at the same concentration as in the case of the groups tested in the MTT test or in relation to the results obtained for the Triton X-100 positive control in the LDH test. They indicate that the compounds are safe at the concentrations tested. Table 7. Viability of tested normal human cell lines: keratinocytes (HaCaT), fibroblasts (BJ) and primary melanocytes after incubation with the tested compounds - determination in the MTT test (% of solvent control ± SD) and LDH (percentage of positive control - Triton X-100.

S. typhimurium TA100 = test: Ames microplate test, TA100; assay type: cell-based, Salmonella typhimurium; conditions: without S9;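 note: reference level is the mean solvent-control yellow wells plus SD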
Protocol: (§2) Bacteria were grown overnight in growth medium.
(§3) Table 9. Ames microplate test results.

Primary melanocytes [1] = test: Safety, MTT test in primary melanocytes; assay type: cell-based; conditions: 48 hours
Protocol: as §1

Primary melanocytes [2] = test: Safety, LDH test in primary melanocytes; assay type: cell-based; conditions: 48 hours, positive control Triton X-100
Protocol: as §1

neuroblastoma SH-SY5Y [3] = test: Safety, MTT test in SH-SY5Y; assay type: cell-based; conditions: 48 hours
Protocol: as §1

Keratinocytes (HaCaT) [4] = test: Safety, MTT test in keratinocytes; assay type: cell-based; conditions: 48 hours
Protocol: as §1

[5] = tested on: Chinese hamster ovary cell line (CHO-K1); test: Cytotoxicity in CHO-K1 cells (MTT) before the micronucleus test; assay type: cell-based; conditions: 24 hours
Protocol: The assay was performed using a Chinese hamster ovary cell line (CHO-K1) purchased from the American Type Culture Collection (ATCC). The cells were cultured in F-12K medium with the addition of 10% fetal bovine serum (FBS) and antibiotics (streptomycin/penicillin) in an incubator at 37 °C and 5% CO2 concentration). Before the actual micronucleus test, a cytotoxicity assessment was performed to ensure that the actual test was performed only at safe concentrations. For this purpose, cells were transferred to 96-well plates and incubated with the tested compounds for 24 hours. After this time, the MTT test was performed and cell viability was assessed in comparison to the control group (cells cultured with DMSO at the same concentration as in the case of the tested samples).

Keratinocytes (HaCaT) [6] = test: Safety, LDH test in keratinocytes; assay type: cell-based; conditions: 48 hours, positive control Triton X-100
Protocol: as §1

neuroblastoma SH-SY5Y [7] = test: Safety, LDH test in SH-SY5Y; assay type: cell-based; conditions: 48 hours, positive control Triton X-100
Protocol: as §1

S. typhimurium TA1537 = test: Ames microplate test, TA1537; assay type: cell-based, Salmonella typhimurium; conditions: without S9;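 note: reference level is the mean solvent-control yellow wells plus SD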
Protocol: as §2, §3

SMILES | Fibroblasts (BJ) LDH (Fibroblasts (BJ); 100 µM) | Fibroblasts (BJ) LDH (Fibroblasts (BJ); 150 µM) | Fibroblasts (BJ) LDH (Fibroblasts (BJ); 200 µM) | Fibroblasts (BJ) LDH (Fibroblasts (BJ); 250 µM) | Primary melanocytes MTT (Primary melanocytes [1]; 100 µM) | Primary melanocytes MTT (Primary melanocytes [1]; 150 µM) | Primary melanocytes MTT (Primary melanocytes [1]; 200 µM) | Primary melanocytes MTT (Primary melanocytes [1]; 250 µM) | Primary melanocytes LDH (Primary melanocytes [2]; 100 µM) | Primary melanocytes LDH (Primary melanocytes [2]; 150 µM) | Primary melanocytes LDH (Primary melanocytes [2]; 200 µM) | Primary melanocytes LDH (Primary melanocytes [2]; 250 µM) | Neuroblastoma SH-SYSY MTT (neuroblastoma SH-SY5Y [3]; 100 µM) | Neuroblastoma SH-SYSY MTT (neuroblastoma SH-SY5Y [3]; 150 µM) | Neuroblastoma SH-SYSY MTT (neuroblastoma SH-SY5Y [3]; 200 µM) | Neuroblastoma SH-SYSY MTT (neuroblastoma SH-SY5Y [3]; 250 µM) | Keratinocytes (HaCaT) MTT (Keratinocytes (HaCaT) [4]; 100 µM) | Keratinocytes (HaCaT) MTT (Keratinocytes (HaCaT) [4]; 150 µM) | Keratinocytes (HaCaT) MTT (Keratinocytes (HaCaT) [4]; 200 µM) | Keratinocytes (HaCaT) MTT (Keratinocytes (HaCaT) [4]; 250 µM) | also measured
Cc1ccc(/C=C/C(=O)NCCCCCO)cc1 [H-415/21, (2E)-N-(5-hydroxypentyl)-3-(4-methylphenyl)prop-2-enamide] | 8.81 percentage of positive control | 8.75 percentage of positive control | 9.82 percentage of positive control | 16.63 percentage of positive control | 103.27±1.88 % of solvent control | 99.89±2.43 % of solvent control | 94.81±2.92 % of solvent control | 87.64±1.44 % of solvent control | 4.22 percentage of positive control | 6.01 percentage of positive control | 8.34 percentage of positive control | 14.94 percentage of positive control | 100.68±4.63 % of solvent control | 99.32±2.96 % of solvent control | 100.27±3.50 % of solvent control | 101.71±2.38 % of solvent control | 101.11±2.03 % of solvent control | 101.78±2.32 % of solvent control | 100.88±1.40 % of solvent control | 88.54±3.74 % of solvent control | Increase in the number of yellow wells compared to the reference level (S. typhimurium TA100; 0.5 mM): 0.92; Increase in the number of yellow wells compared to the reference level (S. typhimurium TA100; 1.0 mM): 0.58; Increase in the number of yellow wells compared to the reference level (S. typhimurium TA100; 2.0 mM): 0.75; % Viability [mean] ([5]; 100 µM): 102.2%; % Viability [mean] ([5]; 150 µM): 102.8%; % Viability [mean] ([5]; 200 µM): 87.2%; Keratinocytes (HaCaT) LDH (Keratinocytes (HaCaT) [6]; 100 µM): 2.95 percentage of positive control; Keratinocytes (HaCaT) LDH (Keratinocytes (HaCaT) [6]; 150 µM): 6.70 percentage of positive control; Keratinocytes (HaCaT) LDH (Keratinocytes (HaCaT) [6]; 200 µM): 10.18 percentage of positive control; Keratinocytes (HaCaT) LDH (Keratinocytes (HaCaT) [6]; 250 µM): 18.19 percentage of positive control; Neuroblastoma SH-SYSY LDH (neuroblastoma SH-SY5Y [7]; 100 µM): 3.90 percentage of positive control; Neuroblastoma SH-SYSY LDH (neuroblastoma SH-SY5Y [7]; 150 µM): 7.24 percentage of positive control; Neuroblastoma SH-SYSY LDH (neuroblastoma SH-SY5Y [7]; 200 µM): 8.92 percentage of positive control; Neuroblastoma SH-SYSY LDH (neuroblastoma SH-SY5Y [7]; 250 µM): 10.55 percentage of positive control; Increase in the number of yellow wells compared to the reference level (S. typhimurium TA1537; 0.5 mM): 0.33; Increase in the number of yellow wells compared to the reference level (S. typhimurium TA1537; 1.0 mM): 0.33; Increase in the number of yellow wells compared to the reference level (S. typhimurium TA1537; 2.0 mM): 0.00
O=C(/C=C/c1ccc(Cl)cc1)NCCO [H-427/21, (2E)-3-(4-chlorophenyl)-N-(2-hydroxyethyl)prop-2-enamide] | 2.75 percentage of positive control | 5.92 percentage of positive control | 9.00 percentage of positive control | 17.32 percentage of positive control | 102.20±2.24 % of solvent control | 100.57±2.18 % of solvent control | 93.78±2.18 % of solvent control | 85.19±2.03 % of solvent control | 3.93 percentage of positive control | 4.44 percentage of positive control | 4.31 percentage of positive control | 15.01 percentage of positive control | 100.48±3.67 % of solvent control | 100.96±2.72 % of solvent control | 101.30±2.94 % of solvent control | 102.60±9.66 % of solvent control | 100.47±3.65 % of solvent control | 98.15±2.63 % of solvent control | 99.24±3.00 % of solvent control | 89.94±4.66 % of solvent control | Keratinocytes (HaCaT) LDH (Keratinocytes (HaCaT) [6]; 100 µM): 2.76 percentage of positive control; Keratinocytes (HaCaT) LDH (Keratinocytes (HaCaT) [6]; 150 µM): 3.69 percentage of positive control; Keratinocytes (HaCaT) LDH (Keratinocytes (HaCaT) [6]; 200 µM): 6.50 percentage of positive control; Keratinocytes (HaCaT) LDH (Keratinocytes (HaCaT) [6]; 250 µM): 17.79 percentage of positive control; Neuroblastoma SH-SYSY LDH (neuroblastoma SH-SY5Y [7]; 100 µM): 3.09 percentage of positive control; Neuroblastoma SH-SYSY LDH (neuroblastoma SH-SY5Y [7]; 150 µM): 4.45 percentage of positive control; Neuroblastoma SH-SYSY LDH (neuroblastoma SH-SY5Y [7]; 200 µM): 5.98 percentage of positive control; Neuroblastoma SH-SYSY LDH (neuroblastoma SH-SY5Y [7]; 250 µM): 8.87 percentage of positive control
O=C(/C=C/c1ccc(Cl)cc1)NCCCO [H-330/21, (2E)-3-(4-chlorophenyl)-N-(3-hydroxypropyl)prop-2-enamide] | 4.74 percentage of positive control | 6.50 percentage of positive control | 14.25 percentage of positive control | 28.74 percentage of positive control | 101.42±2.21 % of solvent control | 97.02±4.49 % of solvent control | 93.78±2.29 % of solvent control | 90.27±2.25 % of solvent control | 5.63 percentage of positive control | 13.09 percentage of positive control | 10.91 percentage of positive control | 18.10 percentage of positive control | 99.79±5.34 % of solvent control | 99.86±3.76 % of solvent control | 99.79±3.97 % of solvent control | 99.11±3.66 % of solvent control | 102.03±1.45 % of solvent control | 101.42±2.04 % of solvent control | 97.07±2.81 % of solvent control | 94.89±1.06 % of solvent control | Keratinocytes (HaCaT) LDH (Keratinocytes (HaCaT) [6]; 100 µM): 3.66 percentage of positive control; Keratinocytes (HaCaT) LDH (Keratinocytes (HaCaT) [6]; 150 µM): 5.33 percentage of positive control; Keratinocytes (HaCaT) LDH (Keratinocytes (HaCaT) [6]; 200 µM): 17.03 percentage of positive control; Keratinocytes (HaCaT) LDH (Keratinocytes (HaCaT) [6]; 250 µM): 24.24 percentage of positive control; Neuroblastoma SH-SYSY LDH (neuroblastoma SH-SY5Y [7]; 100 µM): 6.19 percentage of positive control; Neuroblastoma SH-SYSY LDH (neuroblastoma SH-SY5Y [7]; 150 µM): 4.90 percentage of positive control; Neuroblastoma SH-SYSY LDH (neuroblastoma SH-SY5Y [7]; 200 µM): 8.35 percentage of positive control; Neuroblastoma SH-SYSY LDH (neuroblastoma SH-SY5Y [7]; 250 µM): 13.41 percentage of positive control
